Experimental data: US11434220B2, “Use of physiological cooling active ingredients, and compositions comprising such active ingredients” (BASF SE, priority 2017, dated 2022)

How the values were obtained:
human TRPM8 receptor = target: T1, human TRPM8 receptor (Homo sapiens, UniProt Q7Z2W7); assay: Assay for TRPM8 modulators: Ca2+ fluorescence (Fluo-4) in HEK293-TRPM8 test cells; format: cell-based; details: HEK293 cells stably transfected with human TRPM8, agonism, triplicates, 0.1-200 μM; read-out: Activity In vitro assay (EC50)
T1 construct: expressed in transfected cells
Description: The test cell system produced, with human TRPM8 DNA, was a stably transfected HEK293 cell line. Preference is given here to HEK293 which, via the plasmid introduced, offers the option of induction of TRPM8 expression by means of tetracycline.
The agonism or antagonism of the receptor can be quantified by means of a Ca^2+-sensitive dye (e.g. FURA, Fluo-4 etc.). Agonists on their own result in an increase in the Ca^2+ signal; antagonists in the presence of menthol, for example, result in a reduction in the Ca^2+ signal (in each case detected by means of the Fluo-4 dye which is caused to have different fluorescence properties by Ca^2+).
First of all, in a manner known per se, a fresh culture of transformed HEK cells is produced in cell culture bottles. The HEK293-TRPM8 test cells are detached from the cell culture bottles by means of trypsin and 40 000 cells/well are sown with 100 μl of medium in 96-hole plates (Greiner #655948 poly-D-lysine-coated). For induction of the TRPM8 receptor, tetracycline is added to the growth medium (DMEM/HG, 10% FCS tetracycline-free, 4 mM L-glutamine, 15 μg/mL blasticidin, 100 μg/mL hygromycin B, 1 μg/mL tetracycline). The next day, the cells are laden with Fluo-4AM dye and the test is conducted.
The test substances are used in the assay in triplicates in concentrations of 0.1-200 μM. Normally, the compounds are kept in DMSO solutions and diluted down for the assay to a maximum DMSO concentration of 2%.

trained panelists = assay: Sensory assessment: cooling intensity of inventive amides in 5% sugar solution compared to FEMA 4809; format: in vivo, human; details: scale 1 (very weak) to 9 (very strong), n=10 to 11
Protocol: […] What were assessed here were initial cooling intensity, overall cooling intensity and long-lasting action on a scale from 1 (very weak) to 9 (very strong).

T1 sequence (Q7Z2W7 whole entry): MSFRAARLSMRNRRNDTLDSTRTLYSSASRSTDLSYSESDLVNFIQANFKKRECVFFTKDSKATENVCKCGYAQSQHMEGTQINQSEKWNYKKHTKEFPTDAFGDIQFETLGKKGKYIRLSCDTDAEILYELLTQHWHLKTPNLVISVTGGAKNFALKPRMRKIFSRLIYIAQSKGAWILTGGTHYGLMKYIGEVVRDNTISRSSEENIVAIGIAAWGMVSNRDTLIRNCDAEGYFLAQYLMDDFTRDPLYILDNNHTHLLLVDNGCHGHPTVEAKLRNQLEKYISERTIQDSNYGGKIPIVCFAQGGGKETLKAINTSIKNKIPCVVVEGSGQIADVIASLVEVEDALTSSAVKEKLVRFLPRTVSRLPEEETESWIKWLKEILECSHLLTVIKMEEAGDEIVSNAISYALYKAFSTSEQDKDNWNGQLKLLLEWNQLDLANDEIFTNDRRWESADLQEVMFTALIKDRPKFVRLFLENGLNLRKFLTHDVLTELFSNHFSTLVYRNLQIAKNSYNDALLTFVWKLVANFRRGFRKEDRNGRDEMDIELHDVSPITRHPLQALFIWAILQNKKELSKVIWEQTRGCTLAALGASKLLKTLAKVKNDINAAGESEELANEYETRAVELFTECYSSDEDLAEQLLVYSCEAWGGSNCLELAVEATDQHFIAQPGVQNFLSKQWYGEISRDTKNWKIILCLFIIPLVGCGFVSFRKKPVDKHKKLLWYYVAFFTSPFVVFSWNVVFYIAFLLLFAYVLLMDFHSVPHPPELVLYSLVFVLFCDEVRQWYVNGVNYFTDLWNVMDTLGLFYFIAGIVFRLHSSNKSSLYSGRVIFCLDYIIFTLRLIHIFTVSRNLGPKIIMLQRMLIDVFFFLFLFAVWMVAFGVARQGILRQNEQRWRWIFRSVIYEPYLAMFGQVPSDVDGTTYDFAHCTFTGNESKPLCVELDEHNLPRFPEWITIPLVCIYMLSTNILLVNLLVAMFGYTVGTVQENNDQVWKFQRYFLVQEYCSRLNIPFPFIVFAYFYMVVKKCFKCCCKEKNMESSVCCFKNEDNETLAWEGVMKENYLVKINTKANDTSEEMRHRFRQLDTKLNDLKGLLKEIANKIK

SMILES | EC50 (human TRPM8 receptor) | Initial cooling effect (trained panelists; 2 ppm in 5% sugar solution) | Long-lasting action (trained panelists; 2 ppm in 5% sugar solution) | Overall cooling intensity (trained panelists; 2 ppm in 5% sugar solution) | Initial cooling effect (trained panelists; 20 ppm in 5% sugar solution) | Long-lasting action (trained panelists; 20 ppm in 5% sugar solution) | Overall cooling intensity (trained panelists; 20 ppm in 5% sugar solution)
O=C(/C=C/c1ccc2c(c1)OCO2)N(c1ccccc1)C1CCOC1 (centres unmarked) [(E)-3-(1,3-benzodioxol-5-yl)-N-phenyl-N-tetrahydrofuran-3-yl-prop-2-enamide] | 25 µM | 4.1 | 6.9 | 6.1 | 5.8 | 7.9 | 7.8
CCN(CCSC)C(=O)/C=C/c1ccc(C)cc1 [(E)-N-ethyl-N-(2-methylsulfanylethyl)-3-(p-tolyl)prop-2-enamide] | 10 µM |  |  |  |  |  | 
COc1ccc(/C=C/C(=O)N(c2ccccn2)C2CCSC2)cc1 (centres unmarked) [(E)-3-(4-methoxyphenyl)-N-(2-pyridyl)-N-tetrahydrothiophen-3-yl-prop-2-enamide] | 25 µM |  |  |  | 4.1 | 5.9 | 5.6
O=C(/C=C/c1ccccc1)N(c1ccccn1)C1CCSC1 (centres unmarked) [(E)-3-phenyl-N-(2-pyridyl)-N-tetrahydrothiophen-3-yl-prop-2-enamide] | 30 µM |  |  |  | 5.3 | 7.8 | 7.8
Cc1ccc(/C=C/C(=O)N(CC2CCCO2)c2cc[nH]n2)cc1 (centres unmarked) [(E)-3-(p-tolyl)-N-(1H-pyrazol-3-yl)-N-(tetrahydrofuran-2-ylmethyl)prop-2-enamide] | 10 µM |  |  |  |  |  | 
CCN(CCSC)C(=O)/C=C/c1ccc2c(c1)OCO2 [(E)-3-(1,3-benzodioxol-5-yl)-N-ethyl-N-(2-methylsulfanylethyl)prop-2-enamide] | 15 µM |  |  |  | 3.8 | 4.7 | 5
COc1ccc(/C=C/C(=O)N(c2ccsc2)C2CCCCC2)cc1 [(E)-N-cyclohexyl-3-(4-methoxyphenyl)-N-(3-thienyl)prop-2-enamide] | 25 µM |  |  |  |  |  | 
O=C(/C=C/c1ccc2c(c1)OCO2)N(c1ccccn1)C1CCSC1 (centres unmarked) [(E)-3-(1,3-benzodioxol-5-yl)-N-(2-pyridyl)-N-tetrahydrothiophen-3-yl-prop-2-enamide] | 6 µM |  |  |  | 6.6 | 7.9 | 8.3
O=C(/C=C/c1ccc2c(c1)OCO2)N(CC1CCCO1)c1ccccc1 (centres unmarked) [(E)-3-(1,3-benzodioxol-5-yl)-N-phenyl-N-(tetrahydrofuran-2-ylmethyl)prop-2-enamide] | 5 µM |  |  |  | 3.1 | 5.3 | 5.0
COc1ccc(/C=C/C(=O)N(CC2CCCO2)c2cc[nH]n2)cc1 (centres unmarked) [(E)-3-(4-methoxyphenyl)-N-(1H-pyrazol-3-yl)-N-(tetrahydrofuran-2-ylmethyl)prop-2-enamide] | 25 µM |  |  |  |  |  | 
CSCCN(C(=O)COc1ccc(C)cc1)c1ccccc1 [2-(4-methylphenoxy)-N-(2-methylsulfanylethyl)-N-phenyl-acetamide] | 25 µM |  |  |  | 2.2 | 2.8 | 2.8
COc1ccc(OCC(=O)N(CCSC)c2ccccc2)cc1 [2-(4-methoxyphenoxy)-N-(2-methylsulfanylethyl)-N-phenyl-acetamide] | 30 µM |  |  |  |  |  | 
Cc1ccc(/C=C/C(=O)N(c2ccccn2)C2CCSC2)cc1 (centres unmarked) [(E)-3-(p-tolyl)-N-(2-pyridyl)-N-tetrahydrothiophen-3-yl-prop-2-enamide] | 25 µM |  |  |  | 5.3 | 7.4 | 7.0
COc1ccc(/C=C/C(=O)N(CCSC)c2ccccc2)cc1 [(E)-3-(4-methoxyphenyl)-N-(2-methylsulfanylethyl)-N-phenyl-prop-2-enamide] | 25 µM |  |  |  |  |  | 
